The supplement of paper PMC11208160

Assay: recombinant barcode read abundance after kanamycin selection (control-corrected) (log10(CPM+1)); higher = more efficient recombination; sequences stand for … in AGTGCAGAGAAAATCGGCCAGTTTTCTCTGCCTGCAGTCCGCATGCCGT…ATTTATGCAGCGGACTGCCTTTCTCCCAAAGTGATAAACCGGACAGTATCATGGACCGGTTTTCCCGGTAATCCGTATTTGCAAGGTTGGTTTCACT; site = the 11-nt target
Summary of the method: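 The screen was pooled in E. coli and paired targets with IS621 bridge RNA target-binding loops. Recombination efficiency is taken from barcode counts per million at recombinant junctions, averaged and adjusted against the control. Values, in the form log10(CPM+1), come from duplicate plating on chloramphenicol/ampicillin LB agar or on chloramphenicol/ampicillin/kanamycin with 0.1 mM IPTG.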

Sequence | recombinant barcode read abundance (log10)
CGAGCCCTTTGGGTTCTAACCTGTTGCTGAG [CGAGCCCCTCA_LTGcore_TT_RTGcore_CT] (site CGAGCCCCTCA) (LTG core: TT, RTG core: CT) | 0.048
CGCGCCCAGTGGGTTCTAACCTGTTGCGGCT [CGCGCCCCTCC_LTGcore_AG_RTGcore_AG] (site CGCGCCCCTCC) (LTG core: AG, RTG core: AG) | 0.0334
CGCGCCCATTGGGTTCTAACCTGTTGCGGAG [CGCGCCCCTCC_LTGcore_AT_RTGcore_CT] (site CGCGCCCCTCC) (LTG core: AT, RTG core: CT) | 0.0641
CGCGCCCCTTGGGTTCTAACCTGTTGCGGAG [CGCGCCCCTCC_LTGcore_CT_RTGcore_CT] (site CGCGCCCCTCC) (LTG core: CT, RTG core: CT) | 0.131
CGCGCCCCTTGGGTTCTAACCTGTTGCGGCA [CGCGCCCCTCC_LTGcore_CT_RTGcore_TG] (site CGCGCCCCTCC) (LTG core: CT, RTG core: TG) | 0
CGCGCCCCTTGGGTTCTAACCTGTTGCGGGC [CGCGCCCCTCC_LTGcore_CT_RTGcore_GC] (site CGCGCCCCTCC) (LTG core: CT, RTG core: GC) | 0.592
CGCGCCCCTTGGGTTCTAACCTGTTGCGGTA [CGCGCCCCTCC_LTGcore_CT_RTGcore_TA] (site CGCGCCCCTCC) (LTG core: CT, RTG core: TA) | 0.602
CGCGCCCGATGGGTTCTAACCTGTTGCGGTC [CGCGCCCCTCC_LTGcore_GA_RTGcore_GA] (site CGCGCCCCTCC) (LTG core: GA, RTG core: GA) | 0.158
CGCGCCCGGTGGGTTCTAACCTGTTGCGGAG [CGCGCCCCTCC_LTGcore_GG_RTGcore_CT] (site CGCGCCCCTCC) (LTG core: GG, RTG core: CT) | 0.557
CGCGCCCTATGGGTTCTAACCTGTTGCGGAG [CGCGCCCCTCC_LTGcore_TA_RTGcore_CT] (site CGCGCCCCTCC) (LTG core: TA, RTG core: CT) | 0.334
CGCGCCCTTTGGGTTCTAACCTGTTGCGGAG [CGCGCCCCTCC_LTGcore_TT_RTGcore_CT] (site CGCGCCCCTCC) (LTG core: TT, RTG core: CT) | 0.127
CGGTCCCACTGGGTTCTAACCTGTTGCCAGT [CGGTCCCCTTG_LTGcore_AC_RTGcore_AC] (site CGGTCCCCTTG) (LTG core: AC, RTG core: AC) | 0.19
CGGTCCCAGTGGGTTCTAACCTGTTGCCAAG [CGGTCCCCTTG_LTGcore_AG_RTGcore_CT] (site CGGTCCCCTTG) (LTG core: AG, RTG core: CT) | 0.0476
CGGTCCCATTGGGTTCTAACCTGTTGCCAAG [CGGTCCCCTTG_LTGcore_AT_RTGcore_CT] (site CGGTCCCCTTG) (LTG core: AT, RTG core: CT) | 1.07
CGGTCCCCCTGGGTTCTAACCTGTTGCCAAG [CGGTCCCCTTG_LTGcore_CC_RTGcore_CT] (site CGGTCCCCTTG) (LTG core: CC, RTG core: CT) | 0.189
CGGTCCCCTTGGGTTCTAACCTGTTGCCATG [CGGTCCCCTTG_LTGcore_CT_RTGcore_CA] (site CGGTCCCCTTG) (LTG core: CT, RTG core: CA) | 1.6
CGGTCCCGTTGGGTTCTAACCTGTTGCCAAC [CGGTCCCCTTG_LTGcore_GT_RTGcore_GT] (site CGGTCCCCTTG) (LTG core: GT, RTG core: GT) | 0.229
CGGTCCCTCTGGGTTCTAACCTGTTGCCAAG [CGGTCCCCTTG_LTGcore_TC_RTGcore_CT] (site CGGTCCCCTTG) (LTG core: TC, RTG core: CT) | 0.355
CGGTCCCTCTGGGTTCTAACCTGTTGCCAGA [CGGTCCCCTTG_LTGcore_TC_RTGcore_TC] (site CGGTCCCCTTG) (LTG core: TC, RTG core: TC) | 0.174
